The values below come from patent US12023319B2, “Carboxylic acid aromatic amides” (priority 2016, dated 2024).

The structures appear in SMILES notation.

This assay has as its target T1, human Bradykinin B1 receptor (Homo sapiens, UniProt P46663).
T1 construct: host or cells: CHO-K1
T1 sequence (P46663 1-353): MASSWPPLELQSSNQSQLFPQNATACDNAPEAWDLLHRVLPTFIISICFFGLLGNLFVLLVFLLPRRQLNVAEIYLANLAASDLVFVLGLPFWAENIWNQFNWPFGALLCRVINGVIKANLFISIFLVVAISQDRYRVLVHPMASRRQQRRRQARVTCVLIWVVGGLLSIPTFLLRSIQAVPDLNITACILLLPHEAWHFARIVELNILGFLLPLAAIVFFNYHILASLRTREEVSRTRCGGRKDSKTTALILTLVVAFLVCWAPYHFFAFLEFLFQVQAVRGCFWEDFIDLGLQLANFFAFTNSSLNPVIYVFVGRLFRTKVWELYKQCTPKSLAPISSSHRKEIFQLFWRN
Kind of assay: Calcium flux assay (FLIPR), CHO-K1 cells expressing human Bradykinin B1 receptor, absence of 0.1% BSA (hB1 free IC50). The following applies: absence of 0.1% BSA in assay buffer. It is filed as cell-based. The essentials:
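Peak FLIPR fluorescence (538 nm) after B1 agonist peptide addition gave IC50s, scaled between DMSO and full block by 20 µM Lys-(Des-Arg-Leu)-Bradykinin. Compounds were preincubated 30 min at 28° C with calcium-dye-loaded CHO-K1 cells expressing human B1, at 8 concentrations in triplicate, 1% DMSO final.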
(Calcium flux is commonly read through the fluorescence of an indicator in the cells.)
Consider `O=C(O)c1cc(NC(=O)C2(c3cc(F)ccc3F)CC2)ccc1-c1cnn(C2CCC2)c1` [Example 55, 2-(1-Cyclobutyl-1H-pyrazol-4-yl)-5-({[1-(2,5-difluorophenyl)cyclopropyl]carbonyl}amino)benzoic acid], for which the 50% inhibitory concentration (IC50) (in general, the midpoint of a concentration-inhibition curve) stood at 0.28 µM.
Regarding `O=C(O)c1cc(NC(=O)C2(c3ccc(OC(F)(F)F)cc3F)CC2)ccc1-n1cc(C(F)(F)F)cn1` [Example 65, 5-[({1-[2-Fluoro-4-(trifluoromethoxy)phenyl]cyclopropyl}carbonyl)amino]-2-[4-(trifluoromethyl)-1H-pyrazol-1-yl]benzoic acid], the IC50 amounted to 2.6 µM.
As to `O=C(O)c1cc(NC(=O)C2(c3ccc(OC(F)(F)F)cc3F)CC2)cc(F)c1-c1cnn(CC2CC2)c1` [Example 127, 2-[1-(Cyclopropylmethyl)-1H-pyrazol-4-yl]-3-fluoro-5-[({1-[2-fluoro-4-(trifluoromethoxy)phenyl]cyclopropyl}carbonyl)amino]benzoic acid], the IC50 stood at 0.011 µM.
In the case of `O=C(O)c1cc(NC(=O)C2(c3c(F)cccc3F)CC2)ccc1-c1cnn(C2CCC2)c1` [Example 59, 2-(1-Cyclobutyl-1H-pyrazol-4-yl)-5-({[1-(2,6-difluorophenyl)cyclopropyl]carbonyl}amino)benzoic acid] it was 1.1 µM.
As for `CC(C)(C)c1cn(-c2c(F)cc(NC(=O)C3(c4ccc(C(F)(F)F)cc4F)CC3)cc2C(=O)O)cn1` [Example 90, 2-(4-tert-Butyl-1H-imidazol-1-yl)-3-fluoro-5-[({1-[2-fluoro-4-(trifluoromethyl)phenyl]cyclopropyl}carbonyl)amino]benzoic acid], the figure is 0.024 µM; as for `Cc1ccc(C2(C(=O)Nc3ccc(-c4cnn(C5CC5)c4)c(C(=O)O)c3)CC2)c(F)c1` [Example 150, 2-(1-Cyclopropyl-1H-pyrazol-4-yl)-5-({[1-(2-fluoro-4-methylphenyl)cyclopropyl]carbonyl}amino)benzoic acid], 0.5 µM.
In the case of `CCC(F)(F)c1ccc(-c2ccc(NC(=O)C3(c4ccc(OC(F)(F)F)cc4)CC3)cc2C(=O)O)cn1` [Example 22, 2-[6-(1,1-Difluoropropyl)pyridin-3-yl]-5-[({1-[4-(trifluoromethoxy)phenyl]cyclopropyl}carbonyl)amino]benzoic acid] it was 0.29 µM; in that of `CCC(F)(F)c1ccc(-c2ccc(NC(=O)C3(c4ccc(C(F)(F)F)cc4)CC3)cc2C(=O)O)cn1` [Example 21, 2-[6-(1,1-Difluoropropyl)pyridin-3-yl]-5-[({1-[4-(trifluoromethyl)phenyl]cyclopropyl}carbonyl)amino]benzoic acid], 0.71 µM; in that of `CC[C@@H](C)n1cc(-c2ccc(NC(=O)C3(c4ccc(C(F)(F)F)cc4F)CC3)cc2C(=O)O)cn1` [Example 133, 2-{1-[(2R)-Butan-2-yl]-1H-pyrazol-4-yl}-5-[({1-[2-fluoro-4-(trifluoromethyl)phenyl]cyclopropyl}carbonyl)amino]benzoic acid], 0.059 µM.
As to `CCC(F)(F)c1ccc(-c2ccc(NC(=O)C3(c4ccc(F)cc4F)CC3)cc2C(=O)O)cn1` [Example 23, 5-({[1-(2,4-Difluorophenyl)cyclopropyl]carbonyl}amino)-2-[6-(1,1-difluoropropyl)pyridin-3-yl]benzoic acid], the IC50 came to 2.4 µM.
With `O=C(O)c1cc(NC(=O)C2(c3ccc(OC(F)(F)F)cc3F)CC2)ccc1-c1cnn(CC2CCC2)c1` [Example 120, 2-[1-(Cyclobutylmethyl)-1H-pyrazol-4-yl]-5-[({1-[2-fluoro-4-(trifluoromethoxy)phenyl]cyclopropyl}carbonyl)amino]benzoic acid], the IC50 worked out at 0.017 µM.
For the compound `CC(C)(C)c1ccn(-c2ccc(NC(=O)C3(c4ccc(OC(F)(F)F)cc4F)CC3)cc2C(=O)O)n1` [Example 66, 2-(3-tert-Butyl-1H-pyrazol-1-yl)-5-[({1-[2-fluoro-4-(trifluoromethoxy)phenyl]cyclopropyl}carbonyl)amino]benzoic acid], the concentration for half-maximal inhibition (IC50) came out at 2.1 µM.
On to `CCc1ccc(-c2ccc(NC(=O)C3(c4ccc(OC(F)(F)F)cc4F)CC3)cc2C(=O)O)cn1` [Example 161, 2-(6-Ethylpyridin-3-yl)-5-[({1-[2-fluoro-4-(trifluoromethoxy)phenyl]cyclopropyl}carbonyl)amino]benzoic acid], for which the IC50 was determined as 0.015 µM.
As for `O=C(O)c1cc(NC(=O)C2(c3ccc(C(F)(F)F)cc3F)CC2)cc(F)c1-c1cnn(CC2CC2)c1` [Example 126, 2-[1-(Cyclopropylmethyl)-1H-pyrazol-4-yl]-3-fluoro-5-[({1-[2-fluoro-4-(trifluoromethyl)phenyl]cyclopropyl}carbonyl)amino]benzoic acid], the figure is 0.014 µM; as for `Cn1ncc2ccc(-c3c(F)cc(NC(=O)C4(c5ccc(OC(F)(F)F)cc5F)CC4)cc3C(=O)O)cc21` [Example 166, 3-Fluoro-5-[({1-[2-fluoro-4-(trifluoromethoxy)phenyl]cyclopropyl}carbonyl)amino]-2-(1-methyl-1H-indazol-6-yl)benzoic acid], 0.024 µM; as for `O=C(O)c1cc(NC(=O)C2(c3ccc(C(F)(F)F)cc3F)CC2)cc(F)c1-c1ccc(C(F)F)nc1` [Example 94, 2-[6-(Difluoromethyl)pyridin-3-yl]-3-fluoro-5-[({1-[2-fluoro-4-(trifluoromethyl)phenyl]cyclopropyl}carbonyl)amino]benzoic acid], 0.02 µM.
In the case of `CCC(F)(F)c1ccc(-c2c(C)cc(NC(=O)C3(c4ccc(OC(F)(F)F)cc4F)CC3)cc2C(=O)O)cn1` [Example 113, 2-[6-(1,1-Difluoropropyl)pyridin-3-yl]-5-[({1-[2-fluoro-4-(trifluoromethoxy)phenyl]cyclopropyl}carbonyl)amino]-3-methylbenzoic acid] it was 0.12 µM; in that of `CC(C)(C)Cn1cc(-c2ccc(NC(=O)C3(c4ccc(C(F)(F)F)cc4F)CC3)cc2C(=O)O)cn1` [Example 76, 2-[1-(2,2-Dimethylpropyl)-1H-pyrazol-4-yl]-5-[({1-[2-fluoro-4-(trifluoromethyl)phenyl]cyclopropyl}carbonyl)amino]benzoic acid], 0.011 µM; in that of `CC[C@@H](C)n1cc(-c2c(F)cc(NC(=O)C3(c4ccc(C(F)(F)F)cc4F)CC3)cc2C(=O)O)cn1` [Example 136, 2-{1-[(2R)-Butan-2-yl]-1H-pyrazol-4-yl}-3-fluoro-5-[({1-[2-fluoro-4-(trifluoromethyl)phenyl]cyclopropyl}carbonyl)amino]benzoic acid], 0.028 µM.
Take `O=C(O)c1cc(NC(=O)C2(c3ccc(C(F)(F)F)cc3F)CC2)ccc1-c1cnn(CC2CCC2)c1` [Example 119, 2-[1-(Cyclobutylmethyl)-1H-pyrazol-4-yl]-5-[({1-[2-fluoro-4-(trifluoromethyl)phenyl]cyclopropyl}carbonyl)amino]benzoic acid]: the IC50 is 0.025 µM.
In the case of `Cn1ncc2ccc(-c3ccc(NC(=O)C4(c5ccc(OC(F)(F)F)cc5F)CC4)cc3C(=O)O)cc21` [Example 164, 5-[({1-[2-Fluoro-4-(trifluoromethoxy)phenyl]cyclopropyl}carbonyl)amino]-2-(1-methyl-1H-indazol-6-yl)benzoic acid] it was 0.12 µM.
As for `O=C(O)c1c(-c2cnn(C3CCC3)c2)ccc(NC(=O)C2(c3ccc(C(F)(F)F)cc3F)CC2)c1F` [Example 98, 6-(1-Cyclobutyl-1H-pyrazol-4-yl)-2-fluoro-3-[({1-[2-fluoro-4-(trifluoromethyl)phenyl]cyclopropyl}carbonyl)amino]benzoic acid], the figure is 2.7 µM.
In the case of `O=C(O)c1cc(NC(=O)C2(c3ccc(Cl)cc3F)CC2)ccc1-c1cnc(C2CCC2)s1` [Example 146, 5-({[1-(4-Chloro-2-fluorophenyl)cyclopropyl]carbonyl}amino)-2-(2-cyclobutyl-1,3-thiazol-5-yl)benzoic acid] it was 0.0037 µM; in that of `CC(C)Cn1cc(-c2c(F)cc(NC(=O)C3(c4ccc(C(F)(F)F)cc4F)CC3)cc2C(=O)O)cn1` [Example 92, 3-Fluoro-5-[({1-[2-fluoro-4-(trifluoromethyl)phenyl]cyclopropyl}carbonyl)amino]-2-(1-isobutyl-1H-pyrazol-4-yl)benzoic acid], 0.029 µM.
